“And” between values parts separate entries of the source, which are not always exact repeats. Equal values may be shown once.
Legend:
Test in all cases: Cell viability assay for NSCLC lines
Type in all cases: cell-based, human
NCI-H1693 = conditions: NCI-H1693, 3 days
Method: (§1) Cell Viability Assay for NSCLC Lines. Cell viability was assessed using the Cell Titer-Glo Luminescent Cell Viability from Promega. The assay is a homogenous method of determining the number of viable cells in culture based on quantitation of the adenosine triphosphate (ATP) present, an indicator of metabolically active cells. The homogenous assay procedure involves adding the single reagent (CellTiter-Glo Reagent) directly to cells cultured in serum-supplemented medium. Cells were plated into a 96-well flat bottom plate (Costar Catalog Number 33595) at densities that were previously optimized for each cell line. The cells were incubated overnight in 5% CO2 at 37° C. The following day, compound dilutions were prepared and all concentrations were assayed in triplicate. The cells were incubated with Compound 1 (0.03 μM, 0.1 μM, 0.3 μM, 1 μM, 3 μM, 10 μM and 30 μM for NSCLC cells) in 5% CO2 at 37° C. for 3 days. After a 3-day incubation period, 100 μL of CellTiter-Glo reagent was added to each well for 2 minutes with shaking and further incubated for 10 minutes (no shaking) at room temperature to stabilize the signal. The luminescence was measured on the VICTOR X2 multilabel plate reader. The percent growth inhibition was calculated using the DMSO control in the same plate (no compound) response as 100% cell growth. The average values from triplicates were plotted to obtain IC50 values using software XLfit from IDBS. The formula used for determining IC50 in XLfit was model number 205, which utilizes a 4 Parameter Logistic Model or Sigmoidal Dose-Response Model to calculate the IC50 values. All IC50 values are reported as an average from either two independent experiments or a single experiment.

NCI-H1395 = conditions: NCI-H1395, 3 days
Method: as §1

NCI-H2009 = conditions: NCI-H2009, 3 days
Method: as §1

NCI-H2228 = conditions: NCI-H2228, 3 days
Method: as §1

NCI-H2122 = conditions: NCI-H2122, 3 days
Method: as §1

NCI-H1734 = conditions: NCI-H1734, 3 days
Method: as §1

NCI-H1993 = conditions: NCI-H1993, 3 days
Method: as §1

NCI-H28 = conditions: NCI-H28, 3 days
Method: as §1

NCI-H520 = conditions: NCI-H520, 3 days
Method: as §1

NCI-H1944 = conditions: NCI-H1944, 3 days
Method: as §1

NCI-H1650 = conditions: NCI-H1650, 3 days
Method: as §1

NCI-H647 = conditions: NCI-H647, 3 days
Method: as §1

NCI-H2444 = conditions: NCI-H2444, 3 days
Method: as §1

Calu-6 = conditions: Calu-6, 3 days
Method: as §1

NCI-H2291 = conditions: NCI-H2291, 3 days
Method: as §1

NCI-H1563 = conditions: NCI-H1563, 3 days
Method: as §1

NCI-H650 = conditions: NCI-H650, 3 days
Method: as §1

NCI-H2030 = conditions: NCI-H2030, 3 days
Method: as §1

NCI-H2110 = conditions: NCI-H2110, 3 days
Method: as §1

NCI-H1703 = conditions: NCI-H1703, 3 days
Method: as §1

NCI-H226 = conditions: NCI-H226, 3 days
Method: as §1

NCI-H1792 = conditions: NCI-H1792, 3 days
Method: as §1

NCI-H838 = conditions: NCI-H838, 3 days
Method: as §1

NCI-H441 = conditions: NCI-H441, 3 days
Method: as §1

NCI-H1975 = conditions: NCI-H1975, 3 days
Method: as §1

NCI-H549 = conditions: NCI-H549, 3 days
Method: as §1

SK-LU-1 = conditions: SK-LU-1, 3 days
Method: as §1

Calu-1 = conditions: Calu-1, 3 days
Method: as §1

HOP62 = conditions: HOP62, 3 days
Method: as §1

SW1573 = conditions: SW1573, 3 days
Method: as §1

NCI-H1838 = conditions: NCI-H1838, 3 days
Method: as §1

NCI-H1755 = conditions: NCI-H1755, 3 days
Method: as §1

NCI-H1568 = conditions: NCI-H1568, 3 days
Method: as §1

NCI-H358 = conditions: NCI-H358, 3 days
Method: as §1

HOP92 = conditions: HOP92, 3 days
Method: as §1

In the case of `CO[C@H]1CC[C@H](N2C(=O)CNc3ncc(-c4ccc(C(C)(C)O)nc4)nc32)CC1` [Compound 1, 7-(6-(2-hydroxypropan-2-yl)pyridin-3-yl)-1-((1r,4r)-4-methoxycyclohexyl)-3,4-dihydropyrazino-[2,3-b]pyrazin-2(1H)-one], the IC50 (NCI-H1693) is reported as 1580 nM, the IC50 (NCI-H1395) is reported as 600 nM and the IC50 (NCI-H2009) is reported as 26000 nM. It also gave an IC50 (NCI-H2228) of 264 nM, an IC50 (NCI-H2122) of 900 nM and an IC50 (NCI-H1734) of 1550 nM. For the same compound, the IC50 (NCI-H1993) was 500 nM, the IC50 (NCI-H28) was greater than 30000 nM and the IC50 (NCI-H520) was 499 nM and 500 nM. For the same compound, the IC50 (NCI-H1944) was 550 nM, the IC50 (NCI-H1650) was greater than 30000 nM and the IC50 (NCI-H647) was 1360 nM. For the same compound, the IC50 (NCI-H2444) was 778 nM, the IC50 (Calu-6) was 4520 nM and the IC50 (NCI-H2291) was greater than 30000 nM. For the same compound, the IC50 (NCI-H1563) was greater than 30000 nM, the IC50 (NCI-H650) was greater than 30000 nM and the IC50 (NCI-H2030) was 2230 nM. The IC50 (NCI-H2110) was 456 nM, the IC50 (NCI-H1703) was 920 nM and the IC50 (NCI-H226) was 1750 nM. The IC50 (NCI-H1792) was 540 nM, the IC50 (NCI-H838) was 390 nM and the IC50 (NCI-H441) was greater than 30000 nM. For the same compound, the IC50 (NCI-H1975) was 960 nM, the IC50 (NCI-H549) was 770 nM and the IC50 (SK-LU-1) was 1440 nM. The IC50 (Calu-1) was 4740 nM, the IC50 (HOP62) was 2010 nM and the IC50 (SW1573) was 7210 nM. It also gave an IC50 (NCI-H1838) greater than 30000 nM, an IC50 (NCI-H1755) of 3030 nM and an IC50 (NCI-H1568) of 226 nM. For the same compound, the IC50 (NCI-H358) was 1420 nM and the IC50 (HOP92) was greater than 30000 nM.

Source: patent US9493466B2, “Treatment of cancer with TOR kinase inhibitors” (Signal Pharmaceuticals, LLC, priority 2011, dated 2016)
